Values quoted from earlier work in patent US20250161335A1, “Drug and Method for Nucleoside (Acid) Drug Therapy of Limiting Chronic Hepatitis B” (Shanghai Hep Pharmaceutical Co., Ltd., priority 2022, published 2025).

System: HBV
Conditions: patients treated with nucleoside (acid) medicine

## C[C@H](Cn1cnc2c(N)ncnc21)OCP(=O)(O)O [tenofovir]
  inhibition rate on viral DNA: about 70%
